Source: the NIST ThermoML archive (doi:10.1021/je700265d)
“And” between values parts separate entries of the source, which are not always exact repeats. Equal entries are not always repeated.

Assay: mn = molality of the nth substance listed, in mol/kg
Conditions: Liquid, Vibrating tube method

[Na+].[OH-] [sodium hydroxide] + O
mass density
Conditions	2000 kPa	10000 kPa
323.15 K, m1 = 0.09892	993.08 kg/m3 [middle of 4 runs]	–
323.15 K, m1 = 0.1004	–	996.538 kg/m3 and 996.527 kg/m3
323.15 K, m1 = 0.1011	–	996.561 kg/m3 and 996.552 kg/m3
323.15 K, m1 = 0.1999	997.265 kg/m3	–
323.15 K, m1 = 0.2008	–	1000.68 kg/m3 and 1000.69 kg/m3
323.15 K, m1 = 0.4993	–	1012.82 kg/m3
323.15 K, m1 = 0.4998	1009.52 kg/m3 and 1009.53 kg/m3	–
323.15 K, m1 = 1.002	–	1032.59 kg/m3
323.15 K, m1 = 1.006	1029.58 kg/m3 and 1029.59 kg/m3	–
323.15 K, m1 = 1.998	–	1069.82 kg/m3
323.15 K, m1 = 2.006	1067.14 kg/m3	–
323.15 K, m1 = 2.994	1102.23 kg/m3 and 1102.25 kg/m3	–
323.15 K, m1 = 2.999	–	1104.9 kg/m3
323.15 K, m1 = 4	1135.56 kg/m3 and 1135.59 kg/m3	1137.82 kg/m3
323.15 K, m1 = 4.927	1164.37 kg/m3 and 1164.36 kg/m3	–
323.15 K, m1 = 5.002	–	1168.71 kg/m3
323.15 K, m1 = 5.963	1194.98 kg/m3	–
323.15 K, m1 = 5.984	–	1197.21 kg/m3
323.15 K, m1 = 6.887	1219.57 kg/m3	–
323.15 K, m1 = 6.998	–	1224.73 kg/m3
323.15 K, m1 = 8	1248.12 kg/m3	–
323.15 K, m1 = 8.191	–	1254.93 kg/m3
373.15 K, m1 = 0.1071	–	967.434 kg/m3 and 967.432 kg/m3
373.15 K, m1 = 0.2063	–	971.522 kg/m3
373.15 K, m1 = 0.5006	–	983.362 kg/m3
373.15 K, m1 = 1.007	–	1003.1 kg/m3
373.15 K, m1 = 1.998	–	1039.6 kg/m3
373.15 K, m1 = 3	–	1074.35 kg/m3
373.15 K, m1 = 3.968	–	1105.88 kg/m3
373.15 K, m1 = 4.987	–	1137.02 kg/m3
373.15 K, m1 = 5.995	–	1165.76 kg/m3
373.15 K, m1 = 7	–	1192.66 kg/m3 and 1192.78 kg/m3
373.15 K, m1 = 8.191	–	1222.53 kg/m3
423.15 K, m1 = 0.102	–	926.887 kg/m3 and 926.893 kg/m3
423.15 K, m1 = 0.2019	–	931.217 kg/m3
423.15 K, m1 = 0.4993	–	943.749 kg/m3
423.15 K, m1 = 1.004	–	964.154 kg/m3
423.15 K, m1 = 2.002	–	1002.15 kg/m3
423.15 K, m1 = 3.005	–	1037.71 kg/m3
423.15 K, m1 = 4.007	–	1070.87 kg/m3
423.15 K, m1 = 5.013	–	1101.94 kg/m3 and 1102 kg/m3
423.15 K, m1 = 5.983	–	1129.99 kg/m3
423.15 K, m1 = 6.994	–	1157.33 kg/m3
423.15 K, m1 = 7.997	–	1182.78 kg/m3
473.15 K, m1 = 0.1008	–	875.988 kg/m3 and 876.005 kg/m3 and 876.003 kg/m3
473.15 K, m1 = 0.1998	–	880.725 kg/m3
473.15 K, m1 = 0.498	–	894.456 kg/m3 and 894.426 kg/m3
473.15 K, m1 = 1	–	916.262 kg/m3
473.15 K, m1 = 1.996	–	956.424 kg/m3 and 956.451 kg/m3
473.15 K, m1 = 3.001	–	993.727 kg/m3
473.15 K, m1 = 3.979	–	1027.36 kg/m3
473.15 K, m1 = 4.99	–	1059.7 kg/m3
473.15 K, m1 = 5.981	–	1089.06 kg/m3
473.15 K, m1 = 6.966	–	1116.25 kg/m3 and 1116.27 kg/m3
473.15 K, m1 = 7.982	–	1142.4 kg/m3
523.15 K, m1 = 0.1	–	811.722 kg/m3 and 811.711 kg/m3
523.15 K, m1 = 0.2004	–	817.364 kg/m3
523.15 K, m1 = 0.4995	–	833.124 kg/m3 and 833.104 kg/m3
523.15 K, m1 = 1.002	–	857.633 kg/m3 and 857.68 kg/m3
523.15 K, m1 = 2.005	–	902.001 kg/m3
523.15 K, m1 = 3.005	–	942.171 kg/m3
523.15 K, m1 = 3.999	–	977.951 kg/m3
523.15 K, m1 = 5.003	–	1011.55 kg/m3
523.15 K, m1 = 6.005	–	1042.56 kg/m3 and 1042.64 kg/m3
523.15 K, m1 = 7.002	–	1071.15 kg/m3 and 1071.04 kg/m3
523.15 K, m1 = 7.999	–	1097.71 kg/m3 and 1097.55 kg/m3
573.15 K, m1 = 0.1122	–	724.654 kg/m3 and 724.632 kg/m3
573.15 K, m1 = 0.2173	–	732.398 kg/m3 and 732.406 kg/m3
573.15 K, m1 = 0.5495	–	754.575 kg/m3 and 754.588 kg/m3
573.15 K, m1 = 1.105	–	787.201 kg/m3 and 787.19 kg/m3
573.15 K, m1 = 1.996	–	832.976 kg/m3 and 833.161 kg/m3
573.15 K, m1 = 3.004	–	878.767 kg/m3
573.15 K, m1 = 3.998	–	918.89 kg/m3
573.15 K, m1 = 4.999	–	955.585 kg/m3
573.15 K, m1 = 6.004	–	989.12 kg/m3
573.15 K, m1 = 6.999	–	1019.78 kg/m3
573.15 K, m1 = 7.997	–	1047.99 kg/m3
